Patent US10414763B2 (CANCER RESEARCH TECHNOLOGY LIMITED, priority 2014, dated 2019)

target: T1, full-length human PKCι (Homo sapiens, UniProt P41743); experiment: PKCι IC50 IMAP fluorescence polarisation assay, full-length enzyme, 150 μM ATP; format: biochemical; conditions: read-out: IC50 in IMAP assay against full length PKCi at 150 μM ATP
T1 construct: Recombinant, full-length human PKCι expressed in Sf21 insect cells is also commercially available; purchased EMD Millipore; host or cells: Sf21 insect cells (baculovirus)
T1 sequence (P41743 1-596): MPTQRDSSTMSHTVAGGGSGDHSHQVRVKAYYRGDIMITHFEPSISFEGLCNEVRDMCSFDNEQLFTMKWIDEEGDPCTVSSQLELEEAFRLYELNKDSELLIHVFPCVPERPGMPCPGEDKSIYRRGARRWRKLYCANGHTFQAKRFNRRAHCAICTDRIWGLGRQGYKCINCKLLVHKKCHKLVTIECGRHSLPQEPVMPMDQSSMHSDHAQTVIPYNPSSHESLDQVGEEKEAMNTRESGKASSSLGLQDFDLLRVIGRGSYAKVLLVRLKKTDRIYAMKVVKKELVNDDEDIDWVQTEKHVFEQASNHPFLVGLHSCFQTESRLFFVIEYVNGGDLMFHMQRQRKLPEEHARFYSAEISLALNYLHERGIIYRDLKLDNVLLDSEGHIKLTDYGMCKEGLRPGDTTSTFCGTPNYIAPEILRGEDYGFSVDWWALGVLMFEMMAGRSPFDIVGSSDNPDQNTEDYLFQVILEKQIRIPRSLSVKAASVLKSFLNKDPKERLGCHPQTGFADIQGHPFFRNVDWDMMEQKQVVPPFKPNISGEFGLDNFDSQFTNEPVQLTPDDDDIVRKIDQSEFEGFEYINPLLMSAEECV
Method in brief: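 IMAP fluorescence polarisation kinase assay: 15 pM baculovirus-expressed human PKCiota with 100 nM FAM-pseudosubstrate peptide and 150 μM ATP, 1 h at 25 °C. IMAP detection reagent then 2 h at 25 °C before FP measurement. Inhibition referenced to no-compound and no-enzyme controls for IC50 fitting.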

SMILES | IC50 [nM]
CN(c1nc(-c2ccnc3[nH]c(Sc4ccccc4)cc23)nc2cncc(C3CCC3)c12)C1CCNCC1 [Example 28, [5-Cyclobutyl-2-(2-phenylsulfanyl-1H-pyrrolo[2,3-b]pyridin-4-yl)-pyrido[3,4-d]pyrimidin-4-yl]-methyl-piperidin-4-yl-amine] | < 100
CN(c1nc(-c2ccnc3[nH]c(Sc4ccccc4)cc23)nc2cncc(C3CC3)c12)C1CCNCC1(C)C (stereo not shown) [Example 29, [5-Cyclopropyl-2-(2-phenylsulfanyl-1H-pyrrolo[2,3-b]pyridin-4-yl)-pyrido[3,4-d]pyrimidin-4-yl]-(3,3-dimethyl-piperidin-4-yl)-methyl-amine] | < 100
COc1nc(-c2ccnc3[nH]c4ccccc4c23)nc2cncc(C3CCC3)c12 [Example 30, 4-(5-Cyclobutyl-4-methoxy-pyrido[3,4-d]pyrimidin-2-yl)-9H-pyrido[2,3-b]indole] | 10000 to 40000
CN(c1nc(-c2ccnc3[nH]c4ccccc4c23)nc2cncc(C3CCC3)c12)C1CCNCC1(C)C (stereo not shown) [Example 31, [5-Cyclobutyl-2-(9H-pyrido[2,3-b]indol-4-yl)-pyrido[3,4-d]pyrimidin-4-yl]-(3,3-dimethyl-piperidin-4-yl)-methyl-amine] | < 100
CN(c1nc(-c2ccnc3[nH]c(-c4csc(C(C)(C)C)n4)cc23)nc2cncc(C3CC3)c12)C1CCNCC1(C)C (stereo not shown) [Example 32, {2-[2-(2-tert-Butyl-thiazol-4-yl)-1H-pyrrolo[2,3-b]pyridin-4-yl]-5-cyclopropyl-pyrido[3,4-d]pyrimidin-4-yl}-(3,3-dimethyl-piperidin-4-yl)-methyl-amine] | < 100
c1ccc2c(c1)[nH]c1nccc(-c3nc(N[C@H]4[C@@H]5CNC[C@@H]54)c4c(C5CCC5)cncc4n3)c12 [Example 33, (2R,6S)-3-Aza-bicyclo[3.1.0]hex-6-yl-[(S)-5-cyclobutyl-2-(9H-pyrido[2,3-b]indol-4-yl)-pyrido[3,4-d]pyrimidin-4-yl]-amine] | < 100
CC1(C)CNCCC1Nc1nc(-c2ccnc(Nc3cc4ccccn4n3)c2)nc2cncc(C3CC3)c12 (stereo not shown) [Example 35, {5-Cyclopropyl-2-[2-(pyrazolo[1,5-a]pyridin-2-ylamino)-pyridin-4-yl]-pyrido[3,4-d]pyrimidin-4-yl}-(3,3-dimethyl-piperidin-4-yl)-amine] | < 100
CN(c1nc(-c2ccnc(Nc3cc4ccccn4n3)c2)nc2cncc(C3CC3)c12)C1CCNCC1(C)C (stereo not shown) [Example 36, {5-Cyclopropyl-2-[2-(pyrazolo[1,5-a]pyridin-2-ylamino)-pyridin-4-yl]-pyrido[3,4-d]pyrimidin-4-yl}-(3,3-dimethyl-piperidin-4-yl)-methyl-amine] | < 100
c1cc(-c2nc(N3CCNCC3)c3c(C4CC4)cncc3n2)cc(Nc2nc(C3CC3)cs2)n1 [Example 37, [4-(5-Cyclopropyl-4 piperazin-1-yl-pyrido[3,4-d]pyrimidin-2-yl)-pyridin-2-yl]-(4-cyclopropyl-thiazol-2-yl)-amine] | < 100
c1cc(-c2nc(N3CCNCC3)c3c(C4CCC4)cncc3n2)cc(Nc2nc(C3CC3)cs2)n1 [Example 38, [4-(5-Cyclobutyl-4-piperazin-1-yl-pyrido[3,4-d]pyrimidin-2-yl)-pyridin-2-yl]-(4-cyclopropyl-thiazol-2-yl)-amine] | < 100
CC1(C)CNCCC1Nc1nc(-c2ccnc(Nc3nc(C4CC4)cs3)c2)nc2cncc(C3CC3)c12 (stereo not shown) [Example 39, {5-Cyclopropyl-2-[2-(4-cyclopropyl-thiazol-2-ylamino)-pyridin-4-yl]-pyrido[3,4-d]pyrimidin-4-yl}-(3,3-dimethyl-piperidin-4-yl)-amine] | 100 to 1000
Fc1ccc(-c2cc3c(-c4nc(N5CCNCC5)c5c(C6CC6)cncc5n4)ccnc3[nH]2)c(F)n1 [Example 40, 5-Cyclopropyl-2-[2-(2,6-difluoro-pyridin-3-yl)-1H-pyrrolo[2,3-b]pyridin-4-yl]-4-piperazin-1-yl-pyrido[3,4-d]pyrimidine] | < 100
Cc1ccc(-c2cc3c(-c4nc(N5CCNCC5)c5c(C6CC6)cncc5n4)ccnc3[nH]2)s1 [Example 41, 5-Cyclopropyl-2-[2-(5-methyl-thiophen-2-yl)-1H-pyrrolo[2,3-b]pyridin-4-yl]-4-piperazin-1-yl-pyrido[3,4-d]pyrimidine] | < 100
Cc1ccc(-c2cc3c(-c4nc(N5CCNCC5)c5c(C6CC6)cncc5n4)ccnc3[nH]2)o1 [Example 42, 5-Cyclopropyl-2-[2-(5-methyl-furan-2-yl)-1H-pyrrolo[2,3-b]pyridin-4-yl]-4-piperazin-1-yl-pyrido[3,4-d]pyrimidine] | < 100
Fc1ncccc1-c1cc2c(-c3nc(N4CCNCC4)c4c(C5CC5)cncc4n3)ccnc2[nH]1 [Example 43, 5-Cyclopropyl-2-[2-(2-fluoro-pyridin-3-yl)-1H-pyrrolo[2,3-b]pyridin-4-yl]-4-piperazin-1-yl-pyrido[3,4-d]pyrimidine] | < 100
CN(c1nc(-c2ccnc3[nH]c4ccccc4c23)nc2cncc(C3CCC3)c12)C1CCCNCC1 (stereo not shown) [Example 44, Azepan-4-yl-[5-cyclobutyl-2-(9H-pyrido[2,3-b]indol-4-yl)-pyrido[3,4-d]pyrimidin-4-yl]-methyl-amine] | < 100
CN(c1nc(-c2ccnc3[nH]c(-c4cc(Cl)ccc4Cl)cc23)nc2cncc(C3CC3)c12)C1CCNCC1(C)C (stereo not shown) [Example 45, {5-Cyclopropyl-2-[2-(2,5-dichloro-phenyl)-1H-pyrrolo[2,3-b]pyridin-4-yl]-pyrido[3,4-d]pyrimidin-4-yl}-(3,3-dimethyl-piperidin-4-yl)-methyl-amine] | < 100
Clc1ccc(Cl)c(-c2cc3c(-c4nc(N5CCNCC5)c5c(C6CC6)cncc5n4)ccnc3[nH]2)c1 [Example 46, 5-Cyclopropyl-2-[2-(2,5-dichloro-phenyl)-1H-pyrrolo[2,3-b]pyridin-4-yl]-4-piperazin-1-yl-pyrido[3,4-d]pyrimidine] | < 100
CC1(C)CNCCC1Nc1nc(-c2ccnc(Nc3ccccc3)c2)nc2cncc(C3CC3)c12 (stereo not shown) [Example 47, [5-Cyclopropyl-2-(2-phenylamino-pyridin-4-yl)-pyrido[3,4-d]pyrimidin-4-yl]-(3,3-dimethyl-piperidin-4-yl)-amine] | < 100
CC1(C)CNCCC1Nc1nc(-c2ccnc(Nc3ccc(F)cn3)c2)nc2cncc(C3CC3)c12 (stereo not shown) [Example 48, {5-Cyclopropyl-2-[2-(5-fluoro-pyridin-2-ylamino)-pyridin-4-yl]-pyrido[3,4-d]pyrimidin-4-yl}-(3,3-dimethyl-piperidin-4-yl)-amine] | < 100
CC1(C)CNCCC1Nc1nc(-c2ccnc(Nc3ncccc3F)c2)nc2cncc(C3CC3)c12 (stereo not shown) [Example 49, {5-Cyclopropyl-2-[2-(3-fluoro-pyridin-2-ylamino)-pyridin-4-yl]-pyrido[3,4-d]pyrimidin-4-yl}-(3,3-dimethyl-piperidin-4-yl)-amine] | < 100
CC1(C)CNCCC1Nc1nc(-c2ccnc(Nc3cc(F)ccn3)c2)nc2cncc(C3CC3)c12 (stereo not shown) [Example 50, {5-Cyclopropyl-2-[2-(4-fluoro-pyridin-2-ylamino)-pyridin-4-yl]-pyrido[3,4-d]pyrimidin-4-yl}-(3,3-dimethyl-piperidin-4-yl)-amine] | < 100
CC1(C)CNCCC1Nc1nc(-c2ccnc(Nc3cc(C(F)(F)F)ccn3)c2)nc2cncc(C3CC3)c12 (stereo not shown) [Example 51, {5-Cyclopropyl-2-[2-(4-trifluoromethyl-pyridin-2-ylamino)-pyridin-4-yl]-pyrido[3,4-d]pyrimidin-4-yl}-(3,3-dimethyl-piperidin-4-yl)-amine] | < 100
CC(C)(C)c1csc(Nc2cc(-c3nc(N4CCNCC4)c4c(C5CC5)cncc4n3)ccn2)n1 [Example 52, (4-tert-Butyl-thiazol-2-yl)-[4-(5-cyclopropyl-4-pipcrazin-1-yl-pyrido[3,4-d]pyrimidin-2-yl)-pyridin-2-yl]-amine] | 100 to 1000
CN(c1nc(-c2ccnc(Nc3nc(C4CC4)cs3)c2)nc2cncc(C3CC3)c12)C1CCNCC1(C)C (stereo not shown) [Example 53, {5-Cyclopropyl-2-[2-(4-cyclopropyl-thiazol-2-ylamino)-pyridin-4-yl]-pyrido[3,4-d]pyrimidin-4-yl}-(3,3-dimethyl-piperidin-4-yl)-methyl-amine] | 100 to 1000
CN(C)CC#Cc1cc2c(-c3nc(N4CCNCC4)c4c(C5CCC5)cncc4n3)ccnc2[nH]1 [Example 55, {3-[4-(5-Cyclobutyl-4-piperazin-1-yl-pyrido[3,4-d]pyrimidin-2-yl)-1H-pyrrolo[2,3-b]pyridin-2-yl]-prop-2-ynyl}-dimethyl-amine] | < 100
c1cncc(-c2cc3c(-c4nc(N5CCNCC5)c5c(C6CC6)cncc5n4)ccnc3[nH]2)c1 [Example 58, 5-Cyclopropyl-4-piperazin-1-yl-2-(2-pyridin-3-yl-1H-pyrrolo[2,3-b]pyridin-4-yl)-pyrido[3,4-d]pyrimidine] | < 100
c1ccc2c(c1)[nH]c1nccc(-c3nc(N4CCC5NCCC54)c4c(C5CCC5)cncc4n3)c12 (stereo not shown) [Example 59, 4-[5-Cyclobutyl-4-(hexahydro-pyrrolo[3,2-b]pyrrol-1-yl)-pyrido[3,4-d]pyrimidin-2-yl]-9H-pyrido[2,3-b]indole] | < 100
